Data from patent US20240059689A1, “PURINE DERIVATIVES AS ANTICANCER AGENTS” (Tango Therapeutics, Inc., priority 2021, published 2024).
Like-named read-outs stand apart in the source and are kept apart here.

Experiments:
USP1-UAF1 = USP1-UAF1 (Homo sapiens, UniProt O94782); assay: Ubiquitin Rhodamine assay of USP1-UAF1 activity; format: biochemical
Procedure: Certain compounds of the disclosure were assessed for USP1-UAF1 activity in a Ubiquitin Rhodamine assay as described in Biology Example 1.

monoubiquitinated PCNA = assay: AlphaLISA assay measuring monoubiquitinated PCNA in MDA-MB-436; format: cell-based; settings: read-out: Alpha Lisa IC50
From the text: Table 1 also indicates IC50 values for exemplary compounds in an AlphaLISA assay measuring monoubiquitinated PCNA in a BRCA1 mutant cell line (MDA-MB-436; column 7).

MDA-MB-436 = assay: Viability assay, BRCA1 mutant cell line MDA-MB-436; format: cell-based; settings: BRCA1 mutant MDA-MB-436, read-out: MDA-MB-436 rel IC50
From the text: (§1) Table 1 also indicates IC50 values in a viability assay for a non-isogenic pair of BRCA1 mutant (column 5-MDA-MB-436) and BRCA1 WT (column 6—HCC1954) cell lines. These values indicate the effect of treatment with compound on cell survival.

HCC1954 = assay: Viability assay, BRCA1 WT cell line HCC1954; format: cell-based; settings: read-out: HCC1954 rel IC50
From the text: as §1

[1] = Homo sapiens, MDA-MB-436, monoubiquitinated PCNA
[2] = Homo sapiens, MDA-MB-436, viability
[3] = Homo sapiens, HCC1954, viability

Sequence of USP1-UAF1 (O94782 whole entry): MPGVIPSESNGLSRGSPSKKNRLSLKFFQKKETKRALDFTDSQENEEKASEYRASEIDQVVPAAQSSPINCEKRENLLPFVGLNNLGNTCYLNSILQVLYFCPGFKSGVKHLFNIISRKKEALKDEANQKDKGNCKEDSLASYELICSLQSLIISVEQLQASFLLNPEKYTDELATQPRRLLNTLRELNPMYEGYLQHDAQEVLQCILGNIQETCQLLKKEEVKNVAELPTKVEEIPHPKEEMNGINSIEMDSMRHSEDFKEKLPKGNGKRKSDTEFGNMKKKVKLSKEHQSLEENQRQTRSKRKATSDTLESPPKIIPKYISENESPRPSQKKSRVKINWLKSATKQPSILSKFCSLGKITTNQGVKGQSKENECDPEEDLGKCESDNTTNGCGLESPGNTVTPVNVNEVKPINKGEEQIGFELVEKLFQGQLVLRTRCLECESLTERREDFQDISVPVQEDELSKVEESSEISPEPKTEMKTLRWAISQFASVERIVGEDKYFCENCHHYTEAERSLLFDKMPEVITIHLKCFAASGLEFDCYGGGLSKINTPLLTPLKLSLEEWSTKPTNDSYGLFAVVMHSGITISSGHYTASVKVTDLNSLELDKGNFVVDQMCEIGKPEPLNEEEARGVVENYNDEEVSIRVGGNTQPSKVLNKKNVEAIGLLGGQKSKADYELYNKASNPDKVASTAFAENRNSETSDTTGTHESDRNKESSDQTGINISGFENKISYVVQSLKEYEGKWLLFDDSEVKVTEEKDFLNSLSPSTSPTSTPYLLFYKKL
Sequence of USP1-UAF1 (Q8TAF3 whole entry partner): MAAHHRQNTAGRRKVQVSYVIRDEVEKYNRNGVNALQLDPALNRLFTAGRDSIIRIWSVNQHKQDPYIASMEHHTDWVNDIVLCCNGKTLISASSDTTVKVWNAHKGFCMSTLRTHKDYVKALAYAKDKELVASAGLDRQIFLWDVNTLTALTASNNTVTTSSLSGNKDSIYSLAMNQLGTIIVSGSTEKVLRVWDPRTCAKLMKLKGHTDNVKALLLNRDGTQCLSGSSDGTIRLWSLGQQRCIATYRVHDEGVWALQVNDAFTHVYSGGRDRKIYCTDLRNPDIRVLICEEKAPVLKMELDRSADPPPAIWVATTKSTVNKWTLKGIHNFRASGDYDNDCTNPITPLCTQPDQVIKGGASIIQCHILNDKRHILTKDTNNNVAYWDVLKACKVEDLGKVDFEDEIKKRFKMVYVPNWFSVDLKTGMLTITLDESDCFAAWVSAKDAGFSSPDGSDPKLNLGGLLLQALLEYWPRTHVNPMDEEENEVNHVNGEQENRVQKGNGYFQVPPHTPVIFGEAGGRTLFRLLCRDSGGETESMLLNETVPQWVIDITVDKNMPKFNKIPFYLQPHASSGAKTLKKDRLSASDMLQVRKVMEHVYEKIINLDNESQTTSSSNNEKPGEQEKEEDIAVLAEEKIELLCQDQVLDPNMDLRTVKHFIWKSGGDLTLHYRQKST

| SMILES | IC50 (USP1-UAF1) [nM] | IC50 (monoubiquitinated PCNA; [1]) [nM] | IC50 (MDA-MB-436; [2]) [nM] | IC50 (HCC1954; [3]) [nM] | IC50 (monoubiquitinated PCNA; monoubiquitinated PCNA) [nM] | IC50 (MDA-MB-436; viability) [nM] | IC50 (HCC1954; viability) [nM] |
| --- | --- | --- | --- | --- | --- | --- | --- |
| Cc1cc(Cl)nn1-c1ccc(Cn2c(=N)n(C)c3cnc(-c4ccccc4C(C)C)nc32)cc1 [Example A-21, 9-(4-(3-chloro-5-methyl-1H-pyrazol-1-yl)benzyl)-2-(2-isopropylphenyl)-7-methyl-7,9-dihydro-8H-purin-8-imine] | < 30 | < 100 | < 100 | 250 to 10000 |  |  |  |
| Cn1cc(C(F)(F)F)nc1-c1ccc(Cn2c(=N)n(CC(F)(F)F)c3cnc(-c4cccnc4OC(F)F)nc32)cc1 [Example T-125, 2-[2-(difluoromethoxy)-3-pyridyl]-9-[[4-[1-methyl-4-(trifluoromethyl)imidazol-2-yl]phenyl]methyl]-7-(2,2,2-trifluoroethyl)purin-8-imine] | 30 to 100 | 100 to 250 | 100 to 250 | 250 to 10000 |  |  |  |
| CCn1c(=N)n(Cc2ccc(-c3nc(C(F)(F)F)cn3C)cc2)c2nc(-c3ccccc3C(C)C)ncc21 [Example A-14, 7-ethyl-2-(2-isopropylphenyl)-9-(4-(1-methyl-4-(trifluoromethyl)-1H-imidazol-2-yl)benzyl)-7,9-dihydro-8H-purin-8-imine] | < 30 | < 100 | < 100 | 250 to 10000 |  |  |  |
| [2H]C([2H])([2H])Oc1ncnc(C2CC2)c1-c1ncc2c(n1)n(Cc1ccc(-c3nc(C(F)(F)F)cn3C)c(CC)c1)c(=N)n2CC(F)(F)F [Example T-105, 2-[4-cyclopropyl-6-(trideuteriomethoxy)pyrimidin-5-yl]-9-[[3-ethyl-4-[1-methyl-4-(trifluoromethyl)imidazol-2-yl]phenyl]methyl]-7-(2,2,2-trifluoroethyl)purin-8-imine] | 100 to 10000 | 250 to 10000 | 250 to 10000 | ≥ 10000 |  |  |  |
| Cn1cc(C(F)(F)F)nc1-c1ccc(Cn2c(=N)n(C)c3cnc(-c4ccccc4)nc32)cc1 [Example B-3, 7-methyl-9-(4-(1-methyl-4-(trifluoromethyl)-1H-imidazol-2-yl)benzyl)-2-phenyl-7,9-dihydro-8H-purin-8-imine] | 100 to 10000 | 250 to 10000 | 250 to 10000 | 250 to 10000 |  |  |  |
| [2H]C([2H])([2H])Oc1ncnc(C2CC2)c1-c1ncc2c(n1)n(Cc1ccc(-c3nc(C(F)(F)F)cn3C(C)C)cc1)c(=N)n2CC(F)(F)F [Example T-135, 2-[4-cyclopropyl-6-(trideuteriomethoxy)pyrimidin-5-yl]-9-[[4-[1-isopropyl-4-(trifluoromethyl)imidazol-2-yl]phenyl]methyl]-7-(2,2,2-trifluoroethyl)purin-8-imine] | 30 to 100 | 100 to 250 | < 100 | ≥ 10000 |  |  |  |
| CC(C)c1ccncc1-c1ncc2c(n1)n(Cc1ccc(-c3nc(C(F)(F)F)cn3C)cc1)c(=N)n2C [Example T-035] | 100 to 10000 | 250 to 10000 | 250 to 10000 | ≥ 10000 |  |  |  |
| CC(C)c1ncccc1-c1ncc2c(n1)n(Cc1ccc(-c3nc(C(F)(F)F)cn3C)cc1)c(=N)n2C [Example T-076, 2-(2-isopropyl-3-pyridyl)-7-methyl-9-[[4-[1-methyl-4-(trifluoromethyl)imidazol-2-yl]phenyl]methyl]purin-8-imine] | 30 to 100 | 100 to 250 | 250 to 10000 | ≥ 10000 |  |  |  |
| CC(C)c1ccccc1-c1ncc2c(n1)n(Cc1ccc(-c3nc(C(F)(F)F)cn3C3CN(C)C3)cc1)c(=N)n2C [Example T-099, 2-(2-isopropylphenyl)-7-methyl-9-(4-(1-(1-methylazetidin-3-yl)-4-(trifluoromethyl)-1H-imidazol-2-yl)benzyl)-7H-purin-8(9H)-imine] | 100 to 10000 | 100 to 250 | < 100 | ≥ 10000 |  |  |  |
| COc1ncnc(C2CC2)c1-c1ncc2c(n1)n(Cc1ccc(-c3nc(C(F)(F)F)cn3C)cc1)c(=N)n2C [Example T-019, 2-(4-cyclopropyl-6-methoxy-pyrimidin-5-yl)-7-methyl-9-[[4-[1-methyl-4-(trifluoromethyl)imidazol-2-yl]phenyl]methyl]purin-8-imine] | 100 to 10000 | < 100 | 100 to 250 | ≥ 10000 |  |  |  |
| C=C(C)c1ccccc1-c1ncc2c(n1)n(Cc1ccc(-c3nc(Cl)cn3C)cc1)c(=N)n2C [Example A-12, 9-(4-(4-chloro-1-methyl-1H-imidazol-2-yl)benzyl)-7-methyl-2-(2-(prop-1-en-2-yl)phenyl)-7,9-dihydro-8H-purin-8-imine] | < 30 | < 100 | < 100 | ≥ 10000 |  |  |  |
| CCOc1cc(C(F)(F)F)nn1-c1ccc(Cn2c(=N)n(CC(F)(F)F)c3cnc(-c4c(C(F)(F)F)cnn4C)nc32)cc1 [Example T-138, 9-[[4-[5-ethoxy-3-(trifluoromethyl)pyrazol-1-yl]phenyl]methyl]-2-[2-methyl-4-(trifluoromethyl)pyrazol-3-yl]-7-(2,2,2-trifluoroethyl)purin-8-imine] | 30 to 100 | 100 to 250 | 100 to 250 | 250 to 10000 |  |  |  |
| CC(C)c1ccccc1-c1ncc2c(n1)n(C(C)c1ccc(-c3nc(Cl)cn3C)cc1)c(=N)n2C (single isomer, unassigned) [Example A-9d, 9-(1-(4-(4-chloro-1-methyl-1H-imidazol-2-yl)phenyl)ethyl)-2-(2-isopropylphenyl)-7-methyl-7,9-dihydro-8H-purin-8-imine] | < 30 |  |  |  | < 100 | < 100 | 250 to 10000 |
| CC(C)n1cc(C(F)(F)F)nc1-c1ccc(Cn2c(=N)n(C)c3cnc(-c4cccnc4OCC(F)(F)F)nc32)cc1 [Example T-031] | 100 to 10000 | 250 to 10000 | 250 to 10000 | ≥ 10000 |  |  |  |
| Cn1cc(C(F)(F)F)nc1-c1ccc(Cn2c(=N)n(C)c3cnc(-c4cc(F)ccc4OC(F)F)nc32)cc1 [Example T-039, 2-[2-(difluoromethoxy)-5-fluoro-phenyl]-7-methyl-9-[[4-[1-methyl-4-(trifluoromethyl)imidazol-2-yl]phenyl]methyl]purin-8-imine] | 30 to 100 | 250 to 10000 | 250 to 10000 | ≥ 10000 |  |  |  |
| COc1ncnc(C2CC2)c1-c1ncc2c(n1)n(Cc1ccc(-c3nc(C(F)(F)F)cn3C)c(C)c1)c(=N)n2CC(F)(F)F [Example T-107, 2-(4-cyclopropyl-6-methoxy-pyrimidin-5-yl)-9-[[3-methyl-4-[1-methyl-4-(trifluoromethyl)imidazol-2-yl]phenyl]methyl]-7-(2,2,2-trifluoroethyl)purin-8-imine] | 100 to 10000 | 100 to 250 | 100 to 250 | ≥ 10000 |  |  |  |
| Cc1nc(-c2cccc(F)c2C(C)C)nc2c1n(C)c(=N)n2Cc1ccc(-c2nc(Cl)cn2C)cc1 [Example A-28, 9-(4-(4-chloro-1-methyl-1H-imidazol-2-yl)benzyl)-2-(3-fluoro-2-isopropylphenyl)-6,7-dimethyl-7,9-dihydro-8H-purin-8-imine] | < 30 | < 100 | < 100 | ≥ 10000 |  |  |  |
| COc1ncnc(C2CC2)c1-c1ncc2c(n1)n(Cc1ccc(-c3nc(C(F)(F)F)sc3C)cc1)c(=N)n2CC(F)(F)F [Example T-128] | < 30 | < 100 | < 100 | 250 to 10000 |  |  |  |
| CCOc1cc(C(F)(F)F)nn1-c1ccc(Cn2c(=N)n(C)c3cnc(-c4ccccc4C(C)C)nc32)cc1 [Example T-032] | < 30 | 100 to 250 | < 100 | 250 to 10000 |  |  |  |
| Cc1nc(-c2cc(F)ccc2C(C)C)nc2c1n(C)c(=N)n2Cc1ccc(-c2nc(Cl)cn2C)cc1 [Example A-27, 9-(4-(4-chloro-1-methyl-1H-imidazol-2-yl)benzyl)-2-(5-fluoro-2-isopropylphenyl)-6,7-dimethyl-7,9-dihydro-8H-purin-8-imine] | < 30 | 100 to 250 | 250 to 10000 | 250 to 10000 |  |  |  |
| Cn1cc(C(F)(F)F)nc1-c1ccc(Cn2c(=N)n(C)c3cnc(-c4cccnc4C4CC4)nc32)cc1 [Example T-009, 2-(2-cyclopropyl-3-pyridyl)-7-methyl-9-[[4-[1-methyl-4-(trifluoromethyl)imidazol-2-yl]phenyl]methyl]purin-8-imine] | 30 to 100 | 100 to 250 | 250 to 10000 | ≥ 10000 |  |  |  |
| CC(C)c1ccccc1-c1ncc2c(n1)n(Cc1ccc(-c3ncc(C(F)(F)F)n3C)cc1)c(=N)n2C [Example A-1, 2-(2-isopropylphenyl)-7-methyl-9-(4-(J-methyl-5-(trifluoromethyl)-1H-imidazol-2-yl)benzyl)-7H-purin-8(9H)-imine] | 100 to 10000 | 250 to 10000 | 250 to 10000 | 250 to 10000 |  |  |  |
| COc1cc(C(F)(F)F)nn1-c1ccc(Cn2c(=N)n(CC(F)(F)F)c3cnc(-c4c(C)cnn4C(C)C)nc32)cc1 [Example T-124, 2-(2-isopropyl-4-methyl-pyrazol-3-yl)-9-[[4-[5-methoxy-3-(trifluoromethyl)pyrazol-1-yl]phenyl]methyl]-7-(2,2,2-trifluoroethyl)purin-8-imine] | < 30 | < 100 | < 100 | ≥ 10000 |  |  |  |
